Laboratory results: US8748491B2, “Dietary and pharmaceutical compositions containing tricyclic diterpenes and their derivatives and their uses” (priority 2006, dated 2014)

Tests used:
[1] = system: mouse; experiment: Light dark box test; format: in vivo; conditions: for NUMBER OF CROSSINGS % change from control: mouse
Source text: The method, which detects anxiolytic activity, follows that described by Crawley, 1981 Pharmacol. Biochem. Behav., 15:695-699. Anxiolytics increase the time spent in the light compartment.
Animals were placed into the light compartment of a 2-compartment box with one half light and open (25×27×27 cm) and the other half dark and closed (20×27×27 cm). The time spent in each compartment as well as the number of times the animal crosses from one side to the other is scored during a 3-minute test. 15 mice were studied per group. The test was performed blind.
Carnosic acid was evaluated at 3 doses (100, 200, 400 mg/kg BW), administered by oral gavage (p.o.) 24, 5 and 1 hour before the test, and compared with a vehicle control group (corn oil). Carnosic acid was dissolved in corn oil (“vehicle”). Clobazam (32 mg/kg p.o.), administered 1 hour before the test, was used as reference substance. Mice in this group received additional administrations of vehicle at 24 and 5 hours before the test in order to maintain experimental blinding.

[2] = system: mouse; experiment: Porsolt's forced swim test (FST); format: in vivo
Method: Mice were individually placed in cylinders (24.5 cm height, 19.5 cm internal diameter) containing 13.5 cm depth of water (22±0.5° C.) for a period of 6 minutes, behavioural parameters of interest being analysed during the final 4 minutes of the test, since the first 2 minutes include vigorous activity. Six cylinders were placed in a Perspex box, thus enabling six mice to be tested simultaneously.
Automatic monitoring of swim tests was enabled through the use of VideoMot2 software (TSE Technical and Scientific Equipment GmbH, Bad Homburg, Germany). All to experiments were observed via a black and white CCD camera. The rest:locomotion and stop:start thresholds, as determined by setting parameters in the software programme, determine the number of pixels which must change for a movement to be registered, enabling the software to determine whether a mouse is swimming or resting. The parameters which are automatically recorded include: rest time and locomotion time (ms), % rest and % locomotion, distance travelled (cm), speed of travel (cm/s) and number of stops.
Data were analysed by comparing treated groups with the untreated control group using Fisher's PLSD (StatView, SAS Institute Inc., Cary, N.C., USA)

[3] = target: T1, Monoamine oxidase A (MAO-A) (Homo sapiens, UniProt P21397); experiment: Monoamine oxidase A inhibition (p-tyramine substrate, H2O2/vanillic acid/HRP readout); format: biochemical
T1 sequence (P21397 1-527): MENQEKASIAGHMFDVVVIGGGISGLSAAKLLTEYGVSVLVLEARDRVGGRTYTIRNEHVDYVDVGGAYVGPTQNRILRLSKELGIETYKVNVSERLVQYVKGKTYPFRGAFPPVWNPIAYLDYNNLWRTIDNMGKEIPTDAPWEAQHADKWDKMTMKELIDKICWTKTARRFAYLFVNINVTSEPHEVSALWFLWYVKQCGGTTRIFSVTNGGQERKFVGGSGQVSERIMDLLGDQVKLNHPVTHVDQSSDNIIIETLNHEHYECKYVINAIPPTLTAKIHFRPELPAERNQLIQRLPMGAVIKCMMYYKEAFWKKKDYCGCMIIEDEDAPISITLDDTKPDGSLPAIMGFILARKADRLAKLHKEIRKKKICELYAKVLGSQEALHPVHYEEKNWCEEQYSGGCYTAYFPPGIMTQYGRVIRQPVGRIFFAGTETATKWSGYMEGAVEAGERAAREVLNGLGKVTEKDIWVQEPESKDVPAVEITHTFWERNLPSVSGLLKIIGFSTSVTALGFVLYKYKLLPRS
Method: The organic amines p-tyramine or benzylamine were used as substrates for the Monoamine oxidase A (MAO-A) and B (MAO-B) enzymes respectively. The H2O2 produced by this reaction was quantified by reaction with vanillic acid, catalysed by horse radish peroxidase (HRP).
The reactions were carried out in polystyrene microtitre plates. The MAO enzymes (final concentration 2 U/ml) were mixed with either p-tyramine (Sigma, final concentration 0.5 mM) or benzylamine (Sigma, final concentration 0.5 mM) as appropriate and the chromogenic solution (containing vanillic acid (Fluka), 4-aminoantipyrine (Fluka) and horse radish peroxidase (Sigma), final concentrations 0.25 mM, 0.125 mM and 1 U/ml respectively) in 0.2 M potassium phosphate buffer, pH 7.6. The reactions were followed in a microtitre plate absorbance reader e.g. Spectramax M5 (Molecular Devices Corporation). Absorbance readings at 495 nm were taken every 15 seconds for 40 minutes and the initial reaction velocities calculated by linear regression using SOFTmaxPro (Molecular Devices Corporation).
The effect of tricyclic diterpenes and their derivatives according to formula I on the monoamine oxidase enzymes was determined by their inclusion in the assay at a range of concentrations between 0.03 and 100 μM for 10 minutes prior to and during the incubation with substrate. To determine the effect of the compounds on the HRP catalyzed portion of the reaction, the MAO enzyme was replaced by H2O2 (Molecular Probes, final concentration 0.2 mM). The reactions containing MAO-A and MAO-B were both inhibited by tricyclic diterpenes and their derivatives according to formula I in a dose-dependent manner, whilst the control reaction, was unaffected. The measured IC50 values for inhibition of monoamine oxidase activity by carnosic acid, carnosic acid-12-methyl ether and 20-deoxo-carnosol are shown in Table 3.

For CC(C)c1cc2c(c(O)c1O)[C@@]1(C(=O)O)CCCC(C)(C)[C@@H]1CC2 [Carnosic acid, carnosic acid], the “NUMBER OF CROSSINGS % change from control” value (from here on “NUMBER OF CROSSINGS % change”) ([1]; 100 mg/kg p.o. −24, −5, −1 h) was “+17%”, the “NUMBER OF CROSSINGS % change” value ([1]; 200 mg/kg p.o., −24, −5, −1 h) was −21% and the “NUMBER OF CROSSINGS % change” value ([1]; 400 mg/kg p.o. −24, −5, −1 h) was “+23%”. The “number of crossings (in words)” value ([1]; mouse, 100, 200 and 400 mg/kg p.o.) was “did not affect”, the “Duration of immobility (% change from control)” value ([2]; 10 mg/kg i.p., −30 min) was −29% and the “Duration of immobility (% change from control)” value ([2]; 20 mg/kg i.p., −30 min) was −30%. For the same compound, the “Duration of immobility (% change from control)” value ([2]; 30 mg/kg i.p., −30 min) was −29%, the “Duration of immobility (% change from control)” value ([2]; 200 mg/kg p.o., −24, −5, −1 h) was −38% and the “immobility behaviour (in words)” value ([2]; all doses tested, i.p. and p.o. administration) was “significantly reduced immobility behaviour”. It also gave an IC50 [3] of 4.4 ± 0.3 µM.
